Experiments:
CysLT1R = conditions: cited from earlier work; for pAct: CysLT1R, ChEMBL value, ref 29 (ChEMBL)
wild-type CysLT2R = molecular target: T1, wild-type CysLT2R (Homo sapiens, UniProt Q9NS75); experiment: IP1 production assay, antagonist mode, co-stimulation with EC80 LTD4; type: cell-based; conditions: for inhibition at 30 µM: HEK293, compound 30 µM, LTD4 at EC80, HEK293, wild-type CysLT2R, read-out: inhibition of LTD4-induced IP1 production, single-concentration screen; for Emax: HEK293, read-out: CysLT2R (LTD4) % Max Inhibition ± SEM
T1 construct: expressed in transfected cells; host or cells: HEK293 (ATCC CRL-1573), transient transfection with Lipofectamine 3000
T1 sequence (Q9NS75 1-346): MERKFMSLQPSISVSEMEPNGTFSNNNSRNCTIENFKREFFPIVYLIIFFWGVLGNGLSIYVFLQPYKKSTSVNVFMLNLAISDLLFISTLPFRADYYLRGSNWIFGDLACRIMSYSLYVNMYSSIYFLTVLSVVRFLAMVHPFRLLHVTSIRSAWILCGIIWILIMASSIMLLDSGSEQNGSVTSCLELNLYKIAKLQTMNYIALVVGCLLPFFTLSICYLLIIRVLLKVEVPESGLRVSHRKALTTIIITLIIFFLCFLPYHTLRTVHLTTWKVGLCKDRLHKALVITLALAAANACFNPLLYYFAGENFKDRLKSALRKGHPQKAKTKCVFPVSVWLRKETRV
Protocol: (§1) For this assay, we used the Cisbio IP-One kit as previously described. […] At 48 h post-transfection, the media was removed and the cells were washed with fresh Hank’s Balanced Salt Solution (HBSS). […] After compound stimulation, the cells were incubated for 1 h at 37 °C and stimulated with IP1-D2 and Ab-Crypt reagents in Lysis Buffer. The cells were then incubated at room temperature for an additional hour. […] Normalized data were plotted using either the three-parameter or four-parameter EC50/IC50 fits of GraphPad Prism 8 (San Diego). […] Data represent the means ± SEM of at least three independent experiments performed in quadruplicate.

wild-type CysLT1R = molecular target: T2, wild-type CysLT1R (Homo sapiens, UniProt Q9Y271); experiment: as above; type: cell-based; conditions: for inhibition at 30 µM: HEK293, compound 30 µM, LTD4 at EC80, HEK293, wild-type CysLT1R, read-out: inhibition of LTD4-induced IP1 production, single-concentration screen; for Emax: HEK293, read-out: CysLT1R (LTD4) % Max Inhibition ± SEM
T2 construct: expressed in transfected cells; host or cells: HEK293 (ATCC CRL-1573), transient transfection with Lipofectamine 3000
T2 sequence (Q9Y271 1-337): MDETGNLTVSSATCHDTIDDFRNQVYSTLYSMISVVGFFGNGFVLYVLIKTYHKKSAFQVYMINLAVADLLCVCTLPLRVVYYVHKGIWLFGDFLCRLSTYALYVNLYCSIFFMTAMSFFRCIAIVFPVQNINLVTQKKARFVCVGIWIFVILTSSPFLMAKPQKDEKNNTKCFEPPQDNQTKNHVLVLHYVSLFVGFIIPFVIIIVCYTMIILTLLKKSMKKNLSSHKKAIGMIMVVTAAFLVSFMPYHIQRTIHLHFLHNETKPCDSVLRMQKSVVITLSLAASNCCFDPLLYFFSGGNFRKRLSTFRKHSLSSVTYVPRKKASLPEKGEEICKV
Protocol: as §1

Compound	remaining activity at 30 µM (wild-type CysLT2R)	remaining activity at 30 µM (wild-type CysLT1R)	other results
COc1ccc(NS(=O)(=O)C(F)(F)F)cc1C[C@H]1[C@@H](CO)c2cc(OCc3ccc4ccc(C)cc4n3)ccc2OC1(C)C [CHEMBL1214531, Cc1ccc2ccc(COc3ccc4c(c3)[C@H](CO)[C@H](Cc3cc(ccc3OC)NS(C(F)(F)F)(=O)=O)C(C)(C)O4)nc2c1]			pAct (CysLT1R): 8.4
COc1cc(C(=O)NS(=O)(=O)c2ccccc2C)ccc1Cc1cn(C)c2ccc(NC(=O)OC3CCCC3)cc12 [CHEMBL603, Cc1ccccc1S(NC(c1ccc(Cc2cn(C)c3ccc(cc23)NC(=O)OC2CCCC2)c(c1)OC)=O)(=O)=O]			pAct (CysLT1R): 11.4
O=C(O)c1cc(Cl)cc2c(=O)cc(-c3cccc(C=Cc4ccc5ccccc5n4)c3)oc12 [CHEMBL416769, C(=Cc1ccc2ccccc2n1)c1cccc(c1)C1=CC(c2cc(cc(C(O)=O)c2O1)[Cl])=O]			pAct (CysLT1R): 8.0
CCCC(CCc1nnn[nH]1)Cc1ccc(OCc2ccc3ccccc3n2)cc1 (stereo not drawn) [CHEMBL97356, CCCC(CCc1nnn[nH]1)Cc1ccc(cc1)OCc1ccc2ccccc2n1]			pAct (CysLT1R): 8.0
COc1cccc2c(C=CC(=O)Nc3cccc(C=Cc4ccc5ccc(Cl)cc5n4)c3)c(C(=O)O)[nH]c12 [CHEMBL3810210, COc1cccc2c(C=CC(Nc3cccc(C=Cc4ccc5ccc(cc5n4)[Cl])c3)=O)c(C(O)=O)[nH]c12]			pAct (CysLT1R): 8.2
O=C(Nc1ccc2ccc(OCc3ccc4ccccc4n3)cc2c1)OCc1ccc(C(=O)O)cc1 [CHEMBL132167, C(c1ccc(cc1)C(O)=O)OC(Nc1ccc2ccc(cc2c1)OCc1ccc2ccccc2n1)=O]			pAct (CysLT1R): 8.0
CN(C)C(=O)CCS[C@H](SCCC(=O)O)c1cccc(C=Cc2ccc3ccc(Cl)cc3n2)c1.[Na] [CHEMBL89340, CN(C)C(CCS[C@@H](c1cccc(C=Cc2ccc3ccc(cc3n2)[Cl])c1)SCCC(O)=O)=O.[Na]]			pAct (CysLT1R): 8.5
O=C(O)c1[nH]c2ccccc2c1C(=O)Nc1cccc(/C=C/c2ccc3ccc(Cl)cc3n2)c1 [CHEMBL3809164]			IC50 (CysLT1R; activity of the ligand from ChEMBL, ref ChEMBL, read-out: IC50 (CysLT1)): 35 nM
CCCCCC=CCC=CC=CC=C[C@@H](SC[C@H](N)C(=O)NCC(=O)O)[C@@H](O)CCCC(=O)O [CHEMBL288943, CCCCCC=CCC=CC=CC=C[C@H]([C@H](CCCC(O)=O)O)SC[C@@H](C(NCC(O)=O)=O)N]			pAct (CysLT1R): 9.5
CC(C)(O)c1ccccc1CC[C@@H](SCC1(CC(=O)O)CC1)c1cccc(C=Cc2ccc3c(n2)CCS3)c1 [CHEMBL140058, CC(C)(c1ccccc1CC[C@H](c1cccc(C=Cc2ccc3c(CCS3)n2)c1)SCC1(CC1)CC(O)=O)O]			pAct (CysLT1R): 8.5
NC(=O)COc1cccc(C(=O)NC(CC(=O)O)c2ccc(Cl)c(F)c2)c1 (stereo not drawn) [BRI-12330]	93.4%	72.1%	
O=C(Cc1ccc(S(=O)(=O)CCO)cc1)Nc1ccc(-c2nc3cccc(Cl)c3s2)cc1 [BRI-12452]	77.4%	76.5%	
COC[C@@H](C)n1c(-c2ccc3[nH]c(=O)oc3c2)csc1=Nc1ccc(C(N)=O)cc1 [BRI-12477]	60.6%	74.9%	
O=C(O)CC(NC(=O)Cn1ncc2ccccc21)c1ccc(F)cc1 (stereo not drawn) [BRI-12305]	109%	93.1%	
Cc1cc(O)c(C(=O)O)cc1S(=O)(=O)Nc1ccc(N2CCCC2)c(F)c1 [BRI-12334]	57.2%	47.3%	inhibition at 30 µM (wild-type CysLT2R): ≥ 50%; Emax (wild-type CysLT2R): 21 ± 8%; inhibition at 30 µM (wild-type CysLT1R): ≥ 50%; Emax (wild-type CysLT1R): 46 ± 15%
O=C(O)CSc1nc2ccccc2c2nc(CCc3ccccc3)nn12 [BRI-12314]	96.9%	66.7%	
O=C(O)CCc1cccc(NC(=O)c2ccc(-c3cccs3)[nH]c2=O)c1 [BRI-12475]	74.6%	68.3%	
O=C(Cn1ccc(=O)[nH]c1=O)Nc1cccc(C=Cc2ccccn2)c1 [BRI-12354]	92.8%	72.7%	
NS(=O)(=O)c1cc(C(=O)NCCc2ccc(OCC(=O)O)cc2)cs1 [BRI-12426]	41.8%	72.6%	inhibition at 30 µM (wild-type CysLT2R): ≥ 50%; Emax (wild-type CysLT2R): 5 ± 9%
Cc1sc(NC(=O)C(C)(CC(=O)O)C2CCCCC2)c(C(N)=O)c1-c1ccccc1 (stereo not drawn) [BRI-12474]	106%	118%	
COc1ccc(C2=NN(C(=O)CCC(=O)O)C(c3cccs3)C2)cc1 (stereo not drawn) [BRI-12348]	107%	89.5%	
O=C(O)CNS(=O)(=O)c1ccc(-c2ccc3c(c2)CCC3)s1 [BRI-12451]	61.2%	65.3%	

Compound	remaining activity at 30 µM (wild-type CysLT2R)	remaining activity at 30 µM (wild-type CysLT1R)	other results
COc1ccc(NC(=O)CN(C)C(=O)c2ccccc2-n2cnnn2)cc1 [BRI-12357]	65.7%	77%	
CCc1ncnc(N[C@H]2C[C@@H](CNC(=O)c3ccn4cc(C)nc4c3)C2)c1F [BRI-12458]	40.9%	51.3%	inhibition at 30 µM (wild-type CysLT2R): ≥ 50%; Emax (wild-type CysLT2R): 13 ± 10%; inhibition at 30 µM (wild-type CysLT1R): ≥ 50%; Emax (wild-type CysLT1R): 38 ± 16%
NC(=O)c1ccc(NC(=O)CCCCC2SCC3NC(=O)NC32)cc1 (stereo not drawn) [BRI-12301]	88.1%	91.5%	
CC(Sc1nc(Nc2ccccc2)c2ccccc2n1)C(=O)N1CCNC1=O (stereo not drawn) [BRI-12358]	73.5%	58%	
O=C1COc2ccc(C(=O)Cn3cnc4sc5c(c4c3=O)CCC5)cc2N1 [BRI-12335]	74.8%	73.8%	
c1ccc(C(CNc2ccc3nnnn3n2)c2c[nH]c3ccccc23)cc1 (stereo not drawn) [BRI-12355]	91.8%	76.8%	
CN(CCCc1cc(-c2ccc(F)cc2)n[nH]1)S(=O)(=O)c1[nH]ncc1C(=O)O [BRI-12431]	63.2%	90.9%	
CC(Sc1ccccc1C(=O)O)C(=O)N1CC(=O)Nc2ccccc21 (stereo not drawn) [BRI-12351]	82.6%	77.6%	
O=C(O)c1c(F)cccc1NS(=O)(=O)N1CCc2ccccc2C1 [BRI-12304]	106%	83.8%	
O=C(O)CC(NC(=O)c1ccc(Cl)c(N2CCNC2=O)c1)c1ccccc1 (stereo not drawn) [BRI-12311]	91%	77.5%	
Cc1nc2c(C(N)=O)cnn2c(C)c1CCC(=O)N(C)c1ccc2cc[nH]c2c1 [BRI-12448]	88.5%	95.9%	
O=C(O)c1csc(S(=O)(=O)Nc2cccc(NC(=O)c3ccco3)c2)c1 [BRI-12344]	96.8%	72.5%	
CC(Sc1nnc(-c2c[nH]c3ccccc23)n1C1CC1)C(=O)NC(N)=O (stereo not drawn) [BRI-12347]	104%	79.7%	
O=C(O)CNS(=O)(=O)c1cccc(NC(=O)c2ccc(C3CCC3)cc2)c1 [BRI-12429]	68%	72.3%	
CCc1ccc(CN(C)S(=O)(=O)c2[nH]ncc2C(=O)O)cc1 [BRI-12470]	58.6%	81%	
O=C(O)CC(NC(=O)c1ccc2[nH]ccc2c1)c1ccccc1 (stereo not drawn) [BRI-12361]	91.3%	83.4%	
NC(=O)c1ccc(CNC(=O)c2ccc(NC(=O)c3ccc(Cl)c(Cl)c3)cc2O)o1 [BRI-12418]	67.9%	65.4%	
O=C1COc2cc(C(=O)N3CCC(c4cc5ccccc5[nH]4)CC3)c(Cl)cc2N1 [BRI-12416]	80.4%	70.8%	
O=C(O)CNC(=O)c1ccc(NC(=O)c2cnc3ccccc3c2)cc1 [BRI-12440]	75%	95.2%	
O=C(COC1CCCc2ccccc21)Nc1cccc(NC(=O)NCc2ccncc2)c1 (stereo not drawn) [BRI-12405]	40.6%	70%	inhibition at 30 µM (wild-type CysLT2R): ≥ 50%; Emax (wild-type CysLT2R): 23 ± 6%
O=C(Nc1ccc(C(=O)NC2CCCCC2)c(O)c1)c1ccc(F)c(S(=O)(=O)NC2CC2)c1 [BRI-12446]	67.7%	72.4%	
O=C(c1cc(C(F)(F)F)n[nH]1)N1CCC2(C1)CN(C(=O)[C@@H]1C[C@H]1c1cccnc1)C2 [BRI-12459]	69.1%	77.6%	
